Experiments:
[1] = target: Death-associated protein kinase 1 (Homo sapiens) (UniProt P53355)
Description: Binding affinity to DAPK1 (unknown origin) assessed as change in Gibbs free energy by ITC analysis

[2] = target: Death-associated protein kinase 1 (Homo sapiens) (UniProt P53355); remark: listed apart in the source
Description: Binding affinity to DAPK1 (unknown origin) assessed as change in enthalpy by ITC analysis

[3] = target: Death-associated protein kinase 1 (Homo sapiens) (UniProt P53355); remark: listed apart in the source
Description: Binding affinity to DAPK1 (unknown origin) assessed as change in entropy by ITC analysis

Death-associated protein kinase 1 (Homo sapiens), sequence (P53355 whole entry, looked up): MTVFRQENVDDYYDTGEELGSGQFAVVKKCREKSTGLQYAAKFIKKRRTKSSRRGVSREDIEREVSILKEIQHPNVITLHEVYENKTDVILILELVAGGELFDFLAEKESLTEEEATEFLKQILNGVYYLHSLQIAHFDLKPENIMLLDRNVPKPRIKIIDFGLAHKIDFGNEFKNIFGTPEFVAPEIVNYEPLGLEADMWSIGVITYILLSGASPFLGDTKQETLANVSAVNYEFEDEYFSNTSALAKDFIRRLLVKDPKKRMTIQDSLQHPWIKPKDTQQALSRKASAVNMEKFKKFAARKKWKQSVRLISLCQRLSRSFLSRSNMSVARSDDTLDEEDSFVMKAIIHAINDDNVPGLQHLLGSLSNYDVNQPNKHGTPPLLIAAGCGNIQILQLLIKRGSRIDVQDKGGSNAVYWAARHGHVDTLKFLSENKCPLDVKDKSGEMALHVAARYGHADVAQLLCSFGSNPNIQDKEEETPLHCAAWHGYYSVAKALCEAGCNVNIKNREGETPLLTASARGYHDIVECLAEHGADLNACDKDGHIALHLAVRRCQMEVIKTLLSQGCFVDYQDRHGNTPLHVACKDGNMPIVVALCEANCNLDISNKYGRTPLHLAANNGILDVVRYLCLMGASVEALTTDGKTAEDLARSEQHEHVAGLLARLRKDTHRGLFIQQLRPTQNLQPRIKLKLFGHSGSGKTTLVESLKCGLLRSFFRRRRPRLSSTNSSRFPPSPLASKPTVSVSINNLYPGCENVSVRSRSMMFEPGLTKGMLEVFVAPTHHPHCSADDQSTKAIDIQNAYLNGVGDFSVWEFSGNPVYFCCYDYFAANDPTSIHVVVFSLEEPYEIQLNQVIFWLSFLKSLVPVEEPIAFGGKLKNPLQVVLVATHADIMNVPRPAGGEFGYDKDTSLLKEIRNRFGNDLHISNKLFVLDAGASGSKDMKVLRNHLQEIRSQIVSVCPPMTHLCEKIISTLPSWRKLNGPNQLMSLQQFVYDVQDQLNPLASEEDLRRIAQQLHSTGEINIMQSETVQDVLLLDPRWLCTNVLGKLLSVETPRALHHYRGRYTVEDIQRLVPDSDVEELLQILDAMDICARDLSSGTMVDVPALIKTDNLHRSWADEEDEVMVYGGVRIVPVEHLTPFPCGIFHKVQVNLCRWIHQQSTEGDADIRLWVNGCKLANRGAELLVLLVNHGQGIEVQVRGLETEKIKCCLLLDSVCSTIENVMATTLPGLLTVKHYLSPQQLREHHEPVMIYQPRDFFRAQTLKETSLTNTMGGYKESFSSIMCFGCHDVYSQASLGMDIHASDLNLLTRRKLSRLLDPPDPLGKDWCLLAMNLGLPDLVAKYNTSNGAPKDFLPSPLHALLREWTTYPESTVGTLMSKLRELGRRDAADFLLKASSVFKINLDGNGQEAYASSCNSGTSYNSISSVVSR

O=C(/C=C/c1ccc(O)cc1)c1ccc(O)cc1O
deltaG [1]: -7.66 kcal/mol | deltaH [2]: -9.55 kcal/mol | -TdeltaS [3]: 1.9 kcal/mol

Reference: ChEMBL document CHEMBL6127040, “Discovery and optimization of isoliquiritigenin as a death-associated protein kinase 1 inhibitor” (Eur J Med Chem, 2024)
